In this assay the test system is seven human 14-3-3 isoforms. Put plainly: FA of ERRγ phosphopeptides with the seven 14-3-3 isoforms. The assay is classed as binding. Particulars: 14-3-3γ compared with other isoforms; Figure 2b, Figure S1.

Non-standard residues stand in square brackets, D forms with d. Residues, ends and D or L forms follow the SMILES beside them. pS = N[C@@H](COP(=O)(O)O)C(=O)O

On to `CC(=O)N[C@@H](CCCCN)C(=O)N[C@@H](CCCNC(=N)N)C(=O)N[C@@H](CCCNC(=N)N)C(=O)N[C@@H](CCCNC(=N)N)C(=O)N[C@@H](CCCCN)C(=O)N[C@@H](COP(=O)(O)O)C(=O)N[C@@H](CS)C(=O)N[C@@H](CCC(N)=O)C(=O)N[C@@H](C)C(N)=O` [DBD] (Ac-KRRRK[pS]CQA-NH2), for which the “Relative affinity among 14-3-3 isoforms (in words)” value is reported as “highest affinity”.

The values above are taken from paper PMC7754187 (ACS Chemical Biology, 2020).
